Results: EP4786466A1, “QUINAZOLINE DERIVATIVE, SALT THEREOF, AND PHARMACEUTICAL COMPOSITION COMPRISING SAME AS ACTIVE INGREDIENT” (Korea Research Institute of Chemical Technology, priority 2023, dated 2025)
Where two headings read alike, the source gives them in different places.

Assays:
[1] = target: T1, Recombinant GST-TAG-MASTL (Homo sapiens, UniProt Q96GX5); test: HTRF-based kinase assay (HTRF KinEASE assay kit); format: biochemical; settings: for activity at 1 µM: read-out: MASTL activity (%) HTRF (1 µM)
T1 construct: GST; purchased Thermo Fisher Scientific
T1 sequence (Q96GX5 1-879): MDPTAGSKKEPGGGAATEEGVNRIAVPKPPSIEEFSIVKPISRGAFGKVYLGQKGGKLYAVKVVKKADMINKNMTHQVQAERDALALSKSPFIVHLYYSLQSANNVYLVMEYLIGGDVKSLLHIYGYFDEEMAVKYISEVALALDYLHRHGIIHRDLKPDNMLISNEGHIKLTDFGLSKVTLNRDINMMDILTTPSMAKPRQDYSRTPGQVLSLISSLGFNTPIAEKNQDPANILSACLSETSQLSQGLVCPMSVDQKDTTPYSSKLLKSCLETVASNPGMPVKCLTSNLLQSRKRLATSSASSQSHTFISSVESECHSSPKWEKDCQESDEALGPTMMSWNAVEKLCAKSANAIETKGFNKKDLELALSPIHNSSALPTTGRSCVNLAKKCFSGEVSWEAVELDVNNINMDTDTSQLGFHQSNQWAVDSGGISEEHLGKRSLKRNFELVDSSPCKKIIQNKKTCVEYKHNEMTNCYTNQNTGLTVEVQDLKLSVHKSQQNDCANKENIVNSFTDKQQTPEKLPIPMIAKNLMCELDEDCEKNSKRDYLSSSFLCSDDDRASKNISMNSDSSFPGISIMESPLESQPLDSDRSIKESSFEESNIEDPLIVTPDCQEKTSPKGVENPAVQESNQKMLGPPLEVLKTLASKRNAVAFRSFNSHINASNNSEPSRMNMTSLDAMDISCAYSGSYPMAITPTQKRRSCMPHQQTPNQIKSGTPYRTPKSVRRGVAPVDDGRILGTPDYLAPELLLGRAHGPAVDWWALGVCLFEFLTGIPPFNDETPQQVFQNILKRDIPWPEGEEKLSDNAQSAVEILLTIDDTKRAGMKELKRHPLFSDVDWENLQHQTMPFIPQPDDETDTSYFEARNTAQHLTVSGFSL
Text: Recombinant GST-TAG-MASTL (Thermo Fisher Scientific, MA, USA) was used for HTRF-based kinase assays. The HTRF KinEASE assay kit (CisBio, MA, USA) was used according to the manufacturer's instructions.

pENSA = pENSA level by immunofluorescence (described method: in vitro kinase analysis with GST-tag-MASTL and His-tag-ENSA); format: cell-based; settings: for pENSA (%) Immunofluor ecense (1 µM): compound 1 µM; for IC50: read-out: IC50(nM) pENSA
Outline: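 In vitro kinase reaction using recombinant GST-tagged MASTL with His-tagged ENSA as substrate; phosphorylated ENSA (pENSA) serves as read-out of MASTL activity. Cell lines named: MCF7 breast cancer and MCF10A.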

in vitro = settings: human, mcf10a cells
Description: (§1) MCF7 breast cancer cell lines and MCF10A normal breast cancer cell lines were treated with serial dilutions of the compounds of the present invention ranging from 1 µM to 15.63 nM for 72 hours. Cell viability was measured by the WST-8 assay (Cyto XTM cell viability assay kit; LPS solution, Daejeon, Korea) according to the manufacturer's instructions.

[2] = tested on: MCF7 breast cancer cell lines; test: Cell viability analysis, WST-8 assay, MCF7; settings: for viability at 1 µM / viability at 1.25 µM / IC50: Homo sapiens, MCF7, 72 h; for viability at 1 µM: read-out: Cell viability (%) WST-8, MCF7 (1 µM), compound 1 µM, 72 hours; for viability at 1.25 µM: read-out: Cell viability (%) WST-8, MCF7, footnote a: concentration 1.25 µM, 72 hours
Description: as §1

[3] = footnote b: concentration 10 µM, read-out: MASTL activity (%) HTRF
[4] = read-out: IC50 Cell viability (MCF7)
[5] = HTRF, read-out: IC50(nM) MASTL activity

SMILES	pENSA (%) Immunofluor ecense (1 µM) (pENSA)	IC50 (pENSA)	viability at 1 µM (in vitro)	viability at 1 µM [2]	activity at 1 µM ([1]; compound 1 µM)	further results
O=C(O)c1ccc(Nc2nc(Nc3cc(C4CC4)[nH]n3)c3ccccc3n2)cc1 [compound 4r, 4-((4-((5-cyclopropyl-1G-pyrazol-3-yl)amino)quinazolin-2-yl)amino)benzoic acid]	12%	988 nM	84.2%	98.8%	–	activity at 1 µM [1]: 56.6%
CS(=O)(=O)Cc1ccc(Nc2nc(Nc3cc(C4CC4)[nH]n3)c3ccccc3n2)cc1 [compound 4f, M^4-(5-cyclopropyl-1G-pyrazol-3-yl)-M^2-(4-((methylsulfonyl)methyl)phenyl)quinazoline-2,4-diamine]	50.5%	899 nM	–	–	–	activity at 10 µM [1, 3]: 29%; viability at 1.25 µM (in vitro): 33%; viability at 1.25 µM [2]: 94.5%; IC50 [2, 4]: 2300 nM
NS(=O)(=O)c1ccc(Nc2nc(Nc3cc(C4CC4)[nH]n3)c3ccccc3n2)cc1 [compound 4g, 4-((4-((5-cyclopropyl-1G-pyrazol-3-yl)amino)quinazolin-2-yl)amino)benzenesulfonamide]	10.4%	344 nM	–	–	–	IC50 [1]: 189 nM; activity at 10 µM ([1]; read-out: MASTL activity (%) HTRF): 18.6%; viability at 1.25 µM (in vitro): 9.3%; viability at 1.25 µM [2]: 85.3%; IC50 [2, 4]: 2700 nM
CC(C)(C)OC(=O)N1CCC2(CC1)CCN(c1nc(Nc3cc(C4CC4)[nH]n3)c3ccccc3n1)CC2 [compound 6b, sdqs-butyl 9-(4-((5-cyclopropyl-1G-pyrazol-3-yl)amino)quinazolin-2-yl)-3,9-diazaspiro[5.5]undecane-3-carboxylate]	98.2%	–	122%	116%	43.5%	–
c1ccc2c(Nc3cc(C4CC4)[nH]n3)nc(Nc3ccc(Cc4nnn[nH]4)cc3)nc2c1 [compound 4e, M^2-(4-((1G-tetrazol-5-yl)methyl)phenyl)-M^4-(5-cyclopropyl-1G-pyrazol-3-yl)quinazoline-2,4-diamine]	90.7%	–	–	–	–	IC50 [1, 5]: 164 nM; activity at 10 µM [1, 3]: 15.1%; viability at 1.25 µM (in vitro): 110%; viability at 1.25 µM [2]: 112%
CCc1ccccc1C1=CCN(c2nc(Nc3cc(C4CC4)[nH]n3)c3ccccc3n2)CC1 [compound 6m, M-(5-cyclopropyl-1G-pyrazol-3-yl)-2-(4-(2-ethylphenyl)-3,6-dihydropyridin-1(2G)-yl)quinazolin-4-amine]	97.1%	–	115%	65.7%	51.8%	–
Cc1cc(Nc2nc(N3CC4CC3CN4C(=O)c3ccccc3)nc3ccccc23)n[nH]1 (stereo not shown) [compound 27d, (5-(4-((5-methyl-1G-pyrazol-3-yl)amino)quinazolin-2-yl)-2,5-diazabicyclo[2.2.1]heptan-2-yl)(phenyl)methanone]	60.6%	–	48.3%	94.9%	121%	–
CC(C)(C)OC(=O)NCCCCNC(=O)c1ccc(Nc2nc(Nc3cc(C4CC4)[nH]n3)c3ccccc3n2)cc1 [4y, sdqs-butyl (4-(4-((4-((5-cyclopropyl-1G-pyrazol-3-yl)amino)quinazolin-2-yl)amino)benzamido)butyl)carbamate]	164%	–	80.2%	78.7%	75.3%	–
O=C(Nc1ccccc1)N1CC2CC1CN2c1nc(Nc2cc(C3CC3)[nH]n2)c2ccccc2n1 (stereo not shown) [compound 15c, 5-(4-((5-cyclopropyl-1G-pyrazol-3-yl)amino)quinazolin-2-yl)-M-phenyl-2,5-diazabicyclo[2.2.1]heptane-2-carboxamide]	11.3%	576 nM	40%	93%	41.2%	IC50 [1, 5]: 265 nM
C1=C(c2nc(Nc3cc(C4CC4)[nH]n3)c3ccccc3n2)CCNC1 [compound 8, M-(5-cyclopropyl-1G-pyrazol-3-yl)-2-(1,2,3,6-tetrahydropyridin-4-yl)quinazolin-4-amine trifluoroacetic acid]	53%	–	80.8%	64.3%	–	activity at 1 µM [1]: 57.2%
CN(C)S(=O)(=O)c1ccc(Nc2nc(Nc3cc(C4CC4)[nH]n3)c3ccccc3n2)cc1 [compound 4j, 4-((4-((5-cyclopropyl-1G-pyrazol-3-yl)amino)quinazolin-2-yl)amino)-M,M-dimethylbenzenesulfonamide]	5.2%	420 nM	–	–	–	IC50 [1, 5]: 527 nM; activity at 1.25 µM ([1]; footnote a: concentration 1.25 µM, read-out: MASTL activity (%) HTRF): 27%; viability at 1.25 µM (in vitro): 21.6%; viability at 1.25 µM [2]: 22.8%; IC50 ([2]; read-out: IC50(nM) Cell viability (MCF7)): 713 nM; selectivity for breast cancer cells over normal cells in the cell viability assay ([2]; MCF7 versus MCF10A): selectively inhibit only breast cancer cells
O=S(=O)(c1cccc(C(F)(F)F)c1)N1CC2CC1CN2c1nc(Nc2cc(C3CC3)[nH]n2)c2ccccc2n1 (stereo not shown) [compound 15u, M-(5-cyclopropyl-1G-pyrazol-3-yl)-2-(5-((3-(trifluoromethyl)phenyl)sulfonyl)-2,5-diazabicyclo[2.2.1]heptan-2-yl)quinazolin-4-amine]	100%	–	121%	107%	48.3%	IC50 [1, 5]: 269 nM
O=S(=O)(c1ccc(F)cc1F)N1CC2CCC1CN2c1nc(Nc2cc(C3CC3)[nH]n2)c2ccccc2n1 (stereo not shown) [compound 24c, M-(5-cyclopropyl-1G-pyrazol-3-yl)-2-(5-((2,4-difluorophenyl)sulfonyl)-2,5-diazabicyclo[2.2.2]octan-2-yl)quinazolin-4-amine]	24.3%	–	10.8%	68.3%	16.6%	–
O=C(c1ccccc1)N1CC=C(c2nc(Nc3cc(C4CC4)[nH]n3)c3ccccc3n2)CC1 [compound 9a, (4-(4-((5-cyclopropyl-1G-pyrazol-3-yl)amino)quinazolin-2-yl)-3,6-dihydropyridin-1(2G)-yl)(phenyl)methanone]	50.5%	–	49.7%	63.8%	45.5%	IC50 [1, 5]: 203 nM
CC(C)(C)OC(=O)Nc1cccc(Nc2nc(Nc3ccc(CC#N)cc3)nc3ccccc23)c1 [compound 3m, sdqs-butyl (3-((2-((4-(cyanomethyl)phenyl)amino)quinazolin-4-yl)amino)phenyl)carbamate]	85%	–	91.7%	116%	117%	–
Fc1cc(Br)ccc1Nc1nc(Nc2cc(C3CC3)[nH]n2)c2ccccc2n1 [compound 4c, M^2-(4-bromo-2-fluorophenyl)-M^4-(5-cyclopropyl-1G-pyrazol-3-yl)quinazoline-2,4-diamine]	69%	850 nM	83.3%	50.8%	47.1%	–
c1ccc(CN2CC3CC2CN3c2nc(Nc3cn[nH]c3)c3ccccc3n2)cc1 (stereo not shown) [compound 28f, 2-(5-benzyl-2,5-diazabicyclo[2.2.1]heptan-2-yl)-M-(1G-pyrazol-4-yl)quinazolin-4-amine]	85.1%	–	101%	110%	118%	–
O=S(=O)(c1cccc2cccnc12)N1CC2CC1CN2c1nc(Nc2cc(C3CC3)[nH]n2)c2ccccc2n1 (stereo not shown) [compound 15z, M-(5-cyclopropyl-1G-pyrazol-3-yl)-2-(5-(quinolin-8-ylsulfonyl)-2,5-diazabicyclo[2.2.1]heptan-2-yl)quinazolin-4-amine]	102%	–	111%	110%	105%	–
